Tests used:
[1] = system: Aβ40 in APOE4‐TR mouse forebrain; assay: Forebrain Aβ40 in APOE4-TR mice; format: in vivo; settings: highest dose of 17 mg/kg (30 μmol/kg), 4 h after dosing
Procedure: Data were analyzed with one way ANOVA and Dunnett's multiple comparison test. • B Distribution of APOE4 genotypes in the Phase IIa study versus their baseline Aβ42/40 ratios. The dashed line at Aβ42/40 ratio of 0.09 represents a cutoff, which separates a normal ratio from an abnormally low ratio. • C Comparison of CSF Aβ40 reduction in APOE4 non‐carriers and APOE4 carriers (mean ± SD). • D Comparison of CSFAβ40 reduction in participants with Aβ42/40 ≥ 0.09 and Aβ42/40 < 0.09 (mean ± SD). • E Comparison of Aβ42/40 ratio at baseline and at day 91 for all participants in the placebo, 35 mg, and 85‐mg dose group (mean ± SD, n = 25/group). • F Change of Aβ42/40 ratio for all participants with Aβ42/40 ≤ 0.09 at baseline; bars represent mean ± SD. […] Data were analyzed with one way ANOVA and Dunnett's multiple comparison test. […]
Electrochemiluminescence immunoassays (Mesoscale Diagnostics, Rockville, MD, USA) were used to determine Aβ38, Aβ40, Aβ42, sAPPα, and sAPPβ. For studies in normal mice and rats, the endogenous Aβ40 was extracted from the brain homogenate with 1% Triton X‐100, and the 4G8‐based assay kit was used for quantification according to the manufacturer's instructions. CSF was collected from the cisterna magna and also analyzed using the 4G8 kit. […] For studies in APP23 mice, Aβ40 and Aβ42 were determined after extraction with 70% formic acid and subsequent neutralization.

[2] = system: CSF Aβ; assay: Human CSF Aβ after 2-week once-daily dosing; format: in vivo; settings: 2 weeks, 24 h after last dose, mean ± SEM
Procedure: (A) Changes in Aβ40 relative to baseline values. (B) Changes in sAPPβ relative to baseline values.
CSF was sampled by single lumbar punctures at baseline and 24 h after the last dose, and the change in Aβ concentrations from baseline to end of treatment was determined.
Human CSF was collected from an indwelling spinal catheter inserted into the lower spinal canal (in the single ascending dose (SAD) PD first in human (FIH) study) or by a lumbar puncture (in the multiple ascending dose (MAD) PD Phase I study and Phase IIa study), and by trained personnel at the site and as per their standard operating procedure (SOP). CSF Aβ38, Aβ40, Aβ42, sAPPα, and sAPPβ were quantified in human CSF with 0.2% (v/v) Tween®‐20 using validated sandwich‐based multiplexed electrochemiluminescence methods (MesoScale Discovery, […], MD, USA).

[3] = Shelf life of the clinical capsule form; format: physicochemical; settings: kept refrigerated
[4] = system: C57/BL6 mice; assay: Hair depigmentation study, 8 weeks dosing; format: in vivo, mouse
Procedure: Compounds were either mixed in feed or given as a suspension orally. […] Vehicle or compounds were given orally in a volume of 10 ml/kg once daily (mornings) for 8 weeks. Vehicle: 0.1% Tween‐80 in 0.5% methylcellulose in water. […] The vehicle group was treated with food pellets containing no compound. The β1 antibody was dosed 0.5 mg/kg body weight, once weekly intraperitoneally, diluted in 90 nM NaCl, 50 nM Tris pH 7.1.

[5] = system: rats; assay: Long-term toxicology studies in rats; format: in vivo, rat
Procedure: In vivo animal toxicity studies were performed according to ICH guidance for industry M3(R2) and conformed to the Institutional Animal Care and Use Guidelines for the contract laboratory and sponsor. […] Recovery was assessed after a 12‐week treatment‐free period. Beagle dogs from Marshall BKU UK, 11 months of age, were given 0 (vehicle), 5, 15, or 30 mg/kg/day for 39 weeks. Vehicle consisted of 0.5% (w/v) methylcellulose (1,500 cPS) in 0.1% (v/v) polysorbate 80 (Tween®‐80) in reverse osmosis water. At necropsy, tissues were immersion fixed in 10% neutral‐buffered formalin or modified Davidson's solution and then processed by routine methods to paraffin block and hematoxylin–eosin (H&E)‐stained histologic slides.

Structure (SMILES): C[C@@]1(c2nc(NC(=O)c3ncc(C(F)(F)F)cc3Cl)ccc2F)CO[C@@](C)(C(F)(F)F)C(N)=N1 [CNP520]
- reduction in Aβ40 [1]: 77%
- Aβ reduction in CSF from baseline to end of treatment ([2]; 10 mg daily dose): 59.8 ± 9.88%
- Aβ reduction in CSF from baseline to end of treatment ([2]; 300 mg daily dose): 93.9 ± 2.09%
- shelf life of the capsule form [3]: 24 months
- changes in other pigmented organs (hair follicle, choroid, retina pigmented epithelium) by histopathology ([4]; C57/BL6 mice, 8 weeks): Neither did we observe any changes in other pigmented organs
- Aβ40 reduction in the brain ([4]; at doses with no change in hair color): more than 90%
- hair depigmentation / change in hair color ([4]; male C57/BL6 mice, 8 weeks oral once daily): No change in hair color
- dose with delayed ovulation and slightly reduced fecundity and fertility indices ([5]; female rats): ≥ 30 mg/kg/day
- safety margin: exposure at NOAEL vs exposure at 85 mg in Phase IIa ([5]; female rats): ≥ 7 fold
- fecundity and fertility indices ([5]; female rats at ≥ 30 mg/kg/day, 90% in control animals): 74%
- safety margin: exposure at NOAEL vs exposure at 85 mg in Phase IIa ([5]; male rats): ≥ 5 fold
- dose with adverse (CNS/clinical) effects ([5]; male rats, long-term toxicology): ≥ 500 mg/kg/day

— article PMC6220303 (EMBO Molecular Medicine, 2018)
